Reference: patent US20030049666A1, “Tissue culture assay for measuring drug induced translational recoding at premature stop codons and frameshift mutations” (University of Utah, priority 2001, published 2003)

Columns and labels:
[1] = system: stop codons UGA N, UAG N, and UAA N; test: dual luciferase (p2luc) stop codon readthrough assay in HEK293 cells; type: cell-based, human; conditions: for concentration at which maximal levels of stop codon readthrough were observed: aminoglycoside in growth media for 24 hours; for readthrough of UAA A stop codon: UAA A construct, tissue culture (HEK293)
From the text: The p2luc dual luciferase reporter plasmid system, as described in U.S. Pat. No. 6,143,502, was used to measure the effect of aminoglycosides on stop codon readthrough in tissue culture cells. In this system, the renilla (sea pansy) luciferase and firefly luciferase reporter coding sequences are located on either side of a stop codon (FIG. 1). Stop codon and control constructs (containing a sense codon in place of the stop codon) are transfected in parallel in tissue culture cells. Expression of the upstream renilla luciferase gene provides a way to normalize for differences in transfection efficiencies, translation initiation, and mRNA levels between transfected cultures. […] M. R. Culbertson, RNA surveillance. Unforeseen consequences for gene expression, inherited generic disorders and cancer, 15 Trends Genet. 74-80 (1999). The ability of the dual reporter system to control for differences in mRNA levels between normal and nonsense-containing sequences provides a distinct advantage compared with single reporter or direct protein analysis. After normalization, the differences in downstream firefly luciferase activities between cultures transfected with the stop codon and control sense codon constructs reflect the frequency of stop codon readthrough.
(§1) The stop codons of SEQ ID NO: 1 through SEQ ID NO: 12 and SEQ ID NO: 25 were cloned between the two luciferase genes of p2luc, and control reporter plasmids (SEQ ID NO: 13-24) were produced by changing the first nucleotide of the stop codon to a C. More particularly, complimentary oligonucleotides corresponding to the sequences SEQ ID NO: 1 through SEQ ID NO: 25 were synthesized on an Applied Biosystems model 380C synthesizer (Foster City, Calif.) such that when annealed, they would have SalI- and BamHI-compatible ends. The oligonucleotides were ligated in SalI- and BamHI-digested p2luc vector according to methods well known in the art and transformed to Escherichia coli strain SU1675. DNA sequences were verified by autothermocycler sequencing, and plasmids were purified using the Qiagen Midiprep Kit (Valencia, Calif.) according to the manufacturer's specifications.
The oligonucleotides corresponding to SEQ ID NO: 1 through SEQ ID NO: 12 were identical except for nucleotides 13-16, which contained in-frame stop codons followed by a C, T, A, or G nucleotide. The oligonucleotides corresponding to SEQ ID NO: 13 through SEQ ID NO: 24 were the respective controls, which were identical to the oligonucleotides corresponding to SEQ ID NO: 1 through SEQ ID NO: 12 except the first nucleotide of the stop codon was replaced with a C nucleotide, thus changing the stop codon to a sense codon. The oligonucleotide corresponding to SEQ ID NO: 25 comprises the sequence surrounding the mdx mouse dystrophin mutation.
Translational readthrough of the stop codons of oligonucleotides corresponding to SEQ ID NO: 1 through SEQ ID NO: 12 was determined in a human embryonic kidney cell line (HEK293, e.g., ATCC CRL-1573) grown in the presence of varying amounts of G-418, gentamicin, and paromomycin, which have been particularly effective in inducing stop codon readthrough in yeast. A. Singh et al., Phenotypic suppression and misreading Saccharomyces cerevisiae, 277 Nature 146-148 (1979); E. Palmer et al., Phenotypic suppression of nonsense mutants in yeast by aminoglycoside antibiotics, 277 Nature 148-150 (1979). HEK293 cells were maintained as monolayer cultures growing in Dulbecco's Modified Eagle Medium with 1,000 mg/L of D-glucose, L-glutamine, pyridoxine hydrochloride, and 110 mg/L of sodium pyruvate supplemented with 10% fetal bovine serum and 50 units/ml penicillin/50 µg/ml streptomycin. All cells were incubated at 37° C. in an atmosphere of 5% CO2. All media, penicillin, and streptomycin were obtained from LifeTechnologies (Rockville, Md.); aminoglycosides were purchased from Sigma (St Louis, Mo.); and all sera were obtained from HyClone (Logan, Utah). […]

overall translation = test: inhibition of translation monitored by reduction in renilla luciferase activity in control transfections; type: cell-based, human; conditions: highest concentration tested, HEK293 control transfections
Experimental: Transfections were performed using lipofectamine reagent (LifeTechnologies). HEK293 cells (0.15×10^5)were plated in 0.34-cm^2 wells and grown for 24 to 48 hours according to methods well known in the art. All cells were transfected with 0.3 μl of lipofectin and 0.075 μg of plasmid DNA for 15 hours, in serum-free media. Fresh media with serum and varying levels of aminoglycosides (Sigma) were then added, and incubation continued for 24 hours.
(§2) Cells were lysed using passive lysis buffer (Promega, Madison, Wis., and both renilla and firefly luciferase activities were determined using the dual luciferase reporter assay (Promega) on a Dynatech MLX Microtiter Plate Luminometer (Burlington, Mass.). For all reactions, light emission was measured for 2 to 12 seconds after 100μl of luminescence substrate was injected. Stop codon readthrough was calculated by comparing the ratio of firefly to renilla luciferase activity in cultures transfected with p2luc stop codon constructs and compared with ratios obtained from cultures transfected with p2luc control constructs.
A significant difference in stop codon readthrough induced by the aminoglycosides was observed between UGA, UAG, and UAA. […] The nucleotide in the fourth position immediately after the stop codon also contributed to the frequency of stop codon readthrough. This effect is particularly obvious for UGA N, where N=C>U>A≧G in order of most to least stop codon readthrough. […] Inhibition of translation was monitored by examining the reduction in renilla luciferase activity in control transfections.

[2] = system: cystic fibrosis transmembrane conductance regulator (CFTR) protein; conditions: bronchial cell line carrying a nonsense mutation in the CFTR gene; cited from earlier work
dystrophin = conditions: cited from earlier work
[3] = system: mdx premature stop codon / UGA C control; test: dual luciferase stop codon readthrough assay in mouse myoblast C2C12 cell line; type: cell-based
From the text: as §1, with “DNA sequences were verified by autothermocycler sequencing, and plasmids were purified using the Qiagen Midiprep Kit (Valencia, Calif.) according to the manufacturer's specifications.” left out
as §2, with “constructs. […]” for “constructs.”

Row | Molecule | stop codon readthrough on a mass basis, comparison of the three aminoglycosides ([1]; HEK293 cells) | concentration at which maximal levels of stop codon readthrough were observed ([1]; HEK293 cells) [mg/mL] | readthrough of UAA A stop codon [1] | reduction in overall translation (overall translation) | expression of CFTR protein [2] | effect on premature stop codon in the dystrophin gene of the mdx mouse (dystrophin) | full-length dystrophin protein expressed on aminoglycoside treatment (dystrophin; mdx mouse) [%] | gentamicin-induced readthrough of mdx sequence in C2C12 cells compared with UAA A construct in HEK293 cells [3]
1 | CN[C@@H]1[C@@H](O)[C@@H](O[C@@H]2[C@@H](O)[C@H](O[C@H]3O[C@H]([C@@H](C)O)[C@@H](O)[C@H](O)[C@H]3N)[C@@H](N)C[C@H]2N)OC[C@]1(C)O [G-418] | induced the most readthrough on a mass basis | 0.4 | approximately 1% | ~50% | restore the expression |  |  | 
2 | NC[C@@H]1O[C@H](O[C@H]2[C@@H](O)[C@H](O[C@@H]3[C@@H](O)[C@H](N)C[C@H](N)[C@H]3O[C@H]3O[C@H](CO)[C@@H](O)[C@H](O)[C@H]3N)O[C@@H]2CO)[C@H](N)[C@@H](O)[C@@H]1O [paromomycin] |  | 2 | approximately 1% | little effect on translation |  |  |  | 
3 | gentamicin |  |  | approximately 1% | ~20% | restore the expression | can partially reverse the effects of a premature stop codon | 10 to 20 | No increase
